Here are results for 52 compounds from patent publication US9181273B2, “Morpholine-spirocyclic piperidine amides as modulators of ion channels” (Vertex Pharmaceuticals Incorporated, priority 2011, dated 2015).

Chain of human NaV subtype, like NaV 1.7 (Q15858 whole entry): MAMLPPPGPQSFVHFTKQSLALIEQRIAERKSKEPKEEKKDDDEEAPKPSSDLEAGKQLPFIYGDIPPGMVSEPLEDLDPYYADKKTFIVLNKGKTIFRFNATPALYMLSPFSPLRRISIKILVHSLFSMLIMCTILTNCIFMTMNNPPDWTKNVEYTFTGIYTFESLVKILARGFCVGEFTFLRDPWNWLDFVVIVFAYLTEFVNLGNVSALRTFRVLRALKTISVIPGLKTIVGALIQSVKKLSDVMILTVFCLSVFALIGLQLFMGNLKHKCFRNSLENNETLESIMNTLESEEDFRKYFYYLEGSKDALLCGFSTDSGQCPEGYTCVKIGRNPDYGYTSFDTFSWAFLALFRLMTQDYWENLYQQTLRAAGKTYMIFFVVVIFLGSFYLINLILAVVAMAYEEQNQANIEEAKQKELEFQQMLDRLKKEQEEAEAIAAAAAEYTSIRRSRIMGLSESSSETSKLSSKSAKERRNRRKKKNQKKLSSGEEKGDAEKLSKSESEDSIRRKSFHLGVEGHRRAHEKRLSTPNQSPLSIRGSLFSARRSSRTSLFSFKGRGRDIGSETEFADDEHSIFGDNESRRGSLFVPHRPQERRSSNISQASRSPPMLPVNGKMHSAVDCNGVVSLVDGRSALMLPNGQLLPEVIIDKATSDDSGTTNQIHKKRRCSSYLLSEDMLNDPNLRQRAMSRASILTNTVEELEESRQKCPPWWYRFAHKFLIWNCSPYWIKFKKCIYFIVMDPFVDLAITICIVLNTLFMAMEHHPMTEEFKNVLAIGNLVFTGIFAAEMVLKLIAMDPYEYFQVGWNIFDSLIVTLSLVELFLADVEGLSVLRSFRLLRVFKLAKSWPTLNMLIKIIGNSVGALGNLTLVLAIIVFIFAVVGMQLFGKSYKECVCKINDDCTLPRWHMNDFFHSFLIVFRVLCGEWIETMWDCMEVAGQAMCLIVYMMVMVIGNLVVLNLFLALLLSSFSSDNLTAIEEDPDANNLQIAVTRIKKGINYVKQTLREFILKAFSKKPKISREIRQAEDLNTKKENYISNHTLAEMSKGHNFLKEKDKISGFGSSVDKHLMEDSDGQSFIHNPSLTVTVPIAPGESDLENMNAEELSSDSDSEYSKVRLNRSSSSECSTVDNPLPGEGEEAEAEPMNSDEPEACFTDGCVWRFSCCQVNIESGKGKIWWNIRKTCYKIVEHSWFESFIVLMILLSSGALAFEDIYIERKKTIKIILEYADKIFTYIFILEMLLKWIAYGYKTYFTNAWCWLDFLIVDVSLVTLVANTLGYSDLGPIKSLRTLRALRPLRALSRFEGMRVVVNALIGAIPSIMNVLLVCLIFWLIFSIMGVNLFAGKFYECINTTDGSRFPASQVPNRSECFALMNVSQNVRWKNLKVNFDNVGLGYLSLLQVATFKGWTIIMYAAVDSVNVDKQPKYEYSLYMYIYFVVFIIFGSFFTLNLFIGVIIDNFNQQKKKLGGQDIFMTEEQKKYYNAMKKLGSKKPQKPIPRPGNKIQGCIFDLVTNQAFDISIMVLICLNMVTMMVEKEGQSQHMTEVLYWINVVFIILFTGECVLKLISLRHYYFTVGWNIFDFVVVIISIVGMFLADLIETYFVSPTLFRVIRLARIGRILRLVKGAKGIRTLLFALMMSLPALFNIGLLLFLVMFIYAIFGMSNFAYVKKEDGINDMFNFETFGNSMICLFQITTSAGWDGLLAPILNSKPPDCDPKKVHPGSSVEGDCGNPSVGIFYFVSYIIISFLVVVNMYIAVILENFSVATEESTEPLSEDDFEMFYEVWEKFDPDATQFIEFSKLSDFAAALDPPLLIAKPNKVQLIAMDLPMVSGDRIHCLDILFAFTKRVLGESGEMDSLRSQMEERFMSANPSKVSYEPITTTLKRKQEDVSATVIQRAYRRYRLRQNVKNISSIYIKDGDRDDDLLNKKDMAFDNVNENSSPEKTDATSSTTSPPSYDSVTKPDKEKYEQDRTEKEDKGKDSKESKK

The assay has as its target human NaV subtype, like NaV 1.7 (Homo sapiens, UniProt Q15858). Description: E-VIPR optical membrane potential assay with electrical stimulation. To be noted: active against one or more sodium channels; assay and NaV subtype not specified for Table 3; read-out: IC50 Binned Activity Data. The class given is cell-based. An excerpt: Sodium channels are voltage-dependent proteins that can be activated by inducing membrane voltage changes by applying electric fields. […] The instrument comprises a microtiter plate handler, an optical system for exciting the coumarin dye while simultaneously recording the coumarin and oxonol emissions, a waveform generator, a current- or voltage-controlled amplifier, and a device for inserting electrodes in well. Under integrated computer control, this instrument passes user-programmed electrical stimulus protocols to cells within the wells of the microtiter plate.
24 hours before the assay on E-VIPR, HEK cells expressing human NaV subtype, like NaV 1.7, are seeded in 384-well poly-lysine coated plates at 15,000-20,000 cells per well. Other subtypes are performed in an analogous mode in a cell line expressing the NaV of interest. […] Cells are grown in vented cap flasks, in 90% humidity and 10% CO2, to 100% confluence. They are usually split by trypsinization 1:10 or 1:20, depending on scheduling needs, and grown for 2-3 days before the next split.
To make the solution Add volume of 10% Pluronic F127 stock equal to volumes of CC2-DMPE+DiSBAC6(3). The order of preparation is first mix Pluronic and CC2-DMPE, then add DiSBAC6(3) while vortexing, then add Bath1+β-Cyclodextrin.
1) Pre-spot compounds (in neat DMSO) into compound plates. […] Final compound plate volume will be 80 μL (80-fold intermediate dilution from 1 μL DMSO spot; 160-fold final dilution after transfer to cell plate).
2) Prepare Hexyl Dye Solution.
3) Prepare cell plates. On the day of the assay, medium is aspirated and cells are washed three times with 100 μL of Bath1 Solution, maintaining 25 μL residual volume in each well.
4) Dispense 25 μL per well of Hexyl Dye Solution into cell plates. Incubate for 20-35 minutes at room temp or ambient conditions.
5) Dispense 80 μL per well of Bath1 into compound plates. Acid Yellow-17 (1 mM) is added and Potassium Chloride can be altered from 4.5 to 20 mM depending on the NaV subtype and assay sensitivity.
6) Wash cell plates three times with 100 μL per well of Bath1, leaving 25 μL of residual volume. Then transfer 25 uL per well from Compound Plates to Cell Plates. Incubate for 20-35 minutes at room temp/ambient condition
7) Read Plate on E-VIPR. Use the current-controlled amplifier to deliver stimulation wave pulses for typically 9 seconds and a scan rate of 400 Hz. A pre-stimulus recording is performed for 0.5 seconds to obtain the un-stimulated intensities baseline. The stimulatory waveform is applied for 9 seconds followed by 0.5 seconds of post-stimulation recording to examine the relaxation to the resting state. The stimulatory waveform of the electrical stimulation is specific for each cell type and can vary the magnitude, duration and frequency of the applied current to provide an optimal assay signal.
Data are analyzed and reported as normalized ratios of background-subtracted emission intensities measured in the 460 nm and 580 nm channels. Background intensities are then subtracted from each assay channel. Background intensities are obtained by measuring the emission intensities during the same time periods from identically treated assay wells in which there are no cells. The response as a function of time is then reported as the ratios obtained using the following formula: […]
The data is further reduced by calculating the initial (Ri) and final (Rf) ratios. These are the average ratio values during part or all of the pre-stimulation period, and during sample points during the stimulation period. The response to the stimulus R=Rf/Ri is then calculated and reported as a function of time.
Control responses are obtained by performing assays in the presence of a compound with the desired properties (positive control), such as tetracaine, and in the absence of pharmacological agents (negative control). Responses to the negative (N) and positive (P) controls are calculated as above. The compound antagonist activity A is defined as: […]
Take `CC#CCN1CC(CC)OC2(CCN(C(=O)c3ccc(OC(C)C)c(Cl)c3)CC2)C1` (stereo not shown) [Compound 52]: the IC50 was below 2000 nM. To `COCC1CN(c2ncccn2)CC2(CCN(C(=O)c3ccc(C(C)(C)O)c(F)c3)CC2)O1` (stereo not shown) [Compound 53] belongs 2000 to 5000 nM; to `CCC1CN(c2ccccn2)CC2(CCN(C(=O)c3ccc(C4(O)CCCCC4)cc3)CC2)O1` (stereo not shown) [Compound 54], below 2000 nM; to `CCOCCN1CC(COC)OC2(CCN(C(=O)c3ccc(OC(C)C)c(C)c3)CC2)C1` (stereo not shown) [Compound 55], below 2000 nM. On to `COCC#Cc1ccc(C(=O)N2CCC3(CC2)CN(CC(F)(F)F)CC(c2ccccc2)O3)cc1F` (stereo not shown) [Compound 56], for which the IC50 lay within 2000 to 5000 nM. In the case of `CC(C)(O)c1ccc(C(=O)N2CCC3(CC2)CN(CC(F)F)CC(c2ccccn2)O3)cc1F` (stereo not shown) [Compound 57] it was 2000 to 5000 nM. Turning to `COCC1CN(c2cccc(C(F)(F)F)c2)CC2(CCN(C(=O)c3ccc(C(C)(C)O)c(F)c3)CC2)O1` (stereo not shown) [Compound 58], the IC50 was below 2000 nM. With `O=C(c1ccc(C(O)C2CC2)cc1)N1CCC2(CC1)CN(CC(F)(F)F)CC(c1ccccc1)O2` (stereo not shown) [Compound 59], the IC50 is below 2000 nM. To `COC(C)(C)COc1ccc(C(=O)N2CCC3(CC2)CN(CC(F)(F)F)CC(c2ccccc2)O3)cc1` (stereo not shown) [Compound 60] belongs below 2000 nM; to `CCS(=O)(=O)c1ccc(C(=O)N2CCC3(CC2)CN(CC(F)(F)F)CC(c2ccccc2)O3)cc1C` (stereo not shown) [Compound 62], below 2000 nM; to `Cc1ccc(C2CN(CC(F)F)CC3(CCN(C(=O)c4ccc(OC(C)C)c(C)c4)CC3)O2)cc1` (stereo not shown) [Compound 63], 2000 to 5000 nM. In the case of `COCC1CN(Cc2cocn2)CC2(CCN(C(=O)c3ccc(OC(C)C)c(C)c3)CC2)O1` (stereo not shown) [Compound 64] it was above 5000 nM; in that of `Cc1cc(C(=O)N2CCC3(CC2)CN(CC(F)F)CC(c2ccccn2)O3)ccc1S(=O)(=O)C(C)C` (stereo not shown) [Compound 65], above 5000 nM; in that of `COCC1CN(Cc2c(F)cccc2F)CC2(CCN(C(=O)c3ccc(OC(C)C)c(C)c3)CC2)O1` (stereo not shown) [Compound 66], below 2000 nM. To `CCC1CN(c2ncccn2)CC2(CCN(C(=O)c3ccc(C4(O)CCCCC4)cc3)CC2)O1` (stereo not shown) [Compound 67] belongs below 2000 nM; to `Cc1cc(C(=O)N2CCC3(CC2)CN(CC#N)CC(c2ccccc2)O3)ccc1C(C)(C)O` (stereo not shown) [Compound 68], 2000 to 5000 nM; to `COCC1CN(Cc2cncnc2)CC2(CCN(C(=O)c3ccc(OC(C)C)c(C)c3)CC2)O1` (stereo not shown) [Compound 69], above 5000 nM. `COCC1CN(c2ccc(C#N)cc2)CC2(CCN(C(=O)c3ccc(OC(C)C)c(C)c3)CC2)O1` (stereo not shown) [Compound 70]: the half-inhibitory concentration (IC50) was below 2000 nM. On to `COc1cc(F)cc(C(=O)N2CCC3(CC2)CN(CC(F)(F)F)CC(c2ccccc2)O3)c1` (stereo not shown) [Compound 71], for which the IC50 is above 5000 nM. In the case of `CCOc1cccc(C(=O)N2CCC3(CC2)CN(c2ncccn2)CC(COC)O3)c1` (stereo not shown) [Compound 72] it was above 5000 nM; in that of `COCC1CN(C(C)C)CC2(CCN(C(=O)c3ccc(OC(C)C)c(C)c3)CC2)O1` (stereo not shown) [Compound 73], below 2000 nM.

Turning to `COCC1CN(c2cccc(OC)c2)CC2(CCN(C(=O)c3ccc(OC(C)C)c(C)c3)CC2)O1` (stereo not shown) [Compound 74], the IC50 is below 2000 nM. As for `COCC1CN(c2ccc(C)cn2)CC2(CCN(C(=O)c3ccc(OC(C)C)c(C)c3)CC2)O1` (stereo not shown) [Compound 75], the IC50 was below 2000 nM.

On to `CCN1CC(c2ncc(C)s2)OC2(CCN(C(=O)c3ccc(OC(C)C)c(OC)c3)CC2)C1` (stereo not shown) [Compound 76], for which the IC50 was in the range of 2000 to 5000 nM. In the case of `CC(C)Oc1ccc(C(=O)N2CCC3(CC2)CN(CC(F)F)CC(c2ccccc2)O3)cc1F` (stereo not shown) [Compound 77] it was below 2000 nM; in that of `Cc1cc(C(=O)N2CCC3(CC2)CN(CC(F)(F)F)CC(c2ccccc2)O3)ccc1N1CCOCC1` (stereo not shown) [Compound 78], below 2000 nM.

On to `COCC1CN(c2ncccc2OC)CC2(CCN(C(=O)c3ccc(OC(C)C)c(C)c3)CC2)O1` (stereo not shown) [Compound 79], for which the IC50 is below 2000 nM. For the compound `Cc1cccc(C2CN(CC(F)F)CC3(CCN(C(=O)c4ccc(C(C)(C)O)c(F)c4)CC3)O2)n1` (stereo not shown) [Compound 80], the IC50 is above 5000 nM. In the case of `Cc1cc(C(=O)N2CCC3(CC2)CN(CC(F)F)CC(c2ccc(F)cc2)O3)ccc1OCCCO` (stereo not shown) [Compound 81], the IC50 is above 5000 nM. In the case of `Cc1cc(C(=O)N2CCC3(CC2)CN(Cc2ccccc2)CC(CO)O3)ccc1OC(C)C` (stereo not shown) [Compound 82], the IC50 is 2000 to 5000 nM.

Consider `Cc1cnc(C2CN(Cc3ccccc3)CC3(CCN(C(=O)c4ccc(OC(C)C)c(C)c4)CC3)O2)o1` (stereo not shown) [Compound 83], for which the IC50 is below 2000 nM. To `CC(C)Oc1ccc(C(=O)N2CCC3(CC2)CN(CC(F)F)CC(c2ccnn2C)O3)cc1F` (stereo not shown) [Compound 84] belongs above 5000 nM; to `CC(C)Oc1ccc(C(=O)N2CCC3(CC2)CN(CC(F)F)CC(c2ccccc2)O3)cc1Cl` (stereo not shown) [Compound 86], below 2000 nM; to `Cc1cc(C2CN(CC(F)(F)F)CC3(CCN(C(=O)c4ccc(OC(C)C)c(F)c4)CC3)O2)n[nH]1` (stereo not shown) [Compound 87], 2000 to 5000 nM. As for `Cc1cc(C(=O)N2CCC3(CC2)CN(CC(F)F)CC(c2ncc(C(C)C)o2)O3)ccc1OC(C)C` (stereo not shown) [Compound 88], the IC50 was below 2000 nM. To `CCC#CCN1CC(COC)OC2(CCN(C(=O)c3ccc(OC(C)C)c(C)c3)CC2)C1` (stereo not shown) [Compound 89] belongs below 2000 nM. Regarding `O=C(c1ccccc1OC(F)F)N1CCC2(CC1)CN(CC(F)(F)F)CC(c1ccccc1)O2` (stereo not shown) [Compound 90], the IC50 is above 5000 nM.

Turning to `CCC1CN(c2ncccn2)CC2(CCN(C(=O)c3ccc(C4(O)CCC4)c(C)c3)CC2)O1` (stereo not shown) [Compound 91], the IC50 is below 2000 nM.

With `Cc1cc(C(=O)N2CCC3(CC2)CN(c2ncccn2)CC(CO)O3)ccc1OC(C)C` (stereo not shown) [Compound 92], the IC50 was above 5000 nM. As to `COCC1CN(c2ncccn2)CC2(CCN(C(=O)c3ccc(C4(O)CCC4)c(C)c3)CC2)O1` (stereo not shown) [Compound 93], the IC50 was below 2000 nM. In the case of `CC(C)Oc1ccc(C(=O)N2CCC3(CC2)CN(CC(F)(F)F)CC(c2ccccc2)O3)cc1F` (stereo not shown) [Compound 94] it was below 2000 nM; in that of `COCC1CN(c2ccnc(C)c2)CC2(CCN(C(=O)c3ccc(OC(C)C)c(C)c3)CC2)O1` (stereo not shown) [Compound 95], above 5000 nM. To `O=C(c1ccc(S(=O)(=O)C2CCOC2)cc1)N1CCC2(CC1)CN(CC(F)F)CC(c1ccc(F)cc1)O2` (stereo not shown) [Compound 96] belongs above 5000 nM; to `CCC1CN(c2ccccn2)CC2(CCN(C(=O)c3ccc(C(C)(C)O)c(C)c3)CC2)O1` (stereo not shown) [Compound 97], below 2000 nM. To `Cc1cc(C(=O)N2CCC3(CC2)CN(CC(F)(F)F)CC(c2ccccc2)O3)ccc1C(C)(C)O` (stereo not shown) [Compound 98] belongs below 2000 nM.

On to `O=C(c1ccc(S(=O)(=O)NC2CC2)cc1)N1CCC2(CC1)CN(CC(F)(F)F)CC(c1ccccc1)O2` (stereo not shown) [Compound 99], for which the 50% inhibitory concentration (IC50) was below 2000 nM. To `COc1cc(C(=O)N2CCC3(CC2)CN(CC(F)F)C(c2ccccc2)CO3)ccc1OC(C)C` (stereo not shown) [Compound 100] belongs below 2000 nM. As for `CCCCN1CC(COC)OC2(CCN(C(=O)c3ccc(OC(C)C)c(C)c3)CC2)C1` (stereo not shown) [Compound 101], the IC50 was below 2000 nM. To `COCC1CN(Cc2ccccc2F)CC2(CCN(C(=O)c3ccc(OC(C)C)c(C)c3)CC2)O1` (stereo not shown) [Compound 102] belongs below 2000 nM; to `CCC1CN(c2ccccn2)CC2(CCN(C(=O)c3ccc(C4(O)CCCC4)c(C)c3)CC2)O1` (stereo not shown) [Compound 103], below 2000 nM. Consider `COc1cc(C(=O)N2CCC3(CC2)CN(CC(F)(F)F)C(c2ccccc2)CO3)ccc1OC(C)C` (stereo not shown) [Compound 104], for which the IC50 is below 2000 nM. In the case of `CC(C)(O)c1ccc(C(=O)N2CCC3(CC2)CN(CC(F)(F)F)CC(c2ccccc2)O3)cc1` (stereo not shown) [Compound 105] it was below 2000 nM.

By IC50 is commonly meant the point on the concentration scale where inhibition reaches its midpoint.
